From US4311689A, “Method and container for production of diagnostic scanning” (priority 1978, dated 1982)
Structures can show the parent of a compound that is named as a salt.

Experiment: Bio-distribution in rats 2 hours post injection
Type: in vivo
Procedure: The complex was injected into rats which were sacrificed 2 hours post injection.

activity excreted in the urine (in words) | liver retention / uptake | Compound | activity excreted in the urine | activity retained in the kidneys | also measured
– | – | O=C(O)CN(CCN(CC(=O)O)CC(=O)O)CCN(CC(=O)O)CC(=O)O | greater than 95% | – | –
small amount | about 37% | Sc1cccc2cccnc12 [8-mercapto-quinolinehydrochloride] | – | – | blood labelling: small amount; muscle uptake: ~15%; small intestine uptake: ~20%
– | – | O=C(O)CC(O)(CC(=O)O)C(=O)O [citric acid] | over 70% | about 11% | concentration in any other organ: no significant concentration
the bulk of the injected activity | about 5% | O=C[C@H](O)[C@@H](O)[C@H](O)[C@H](O)CO [d-glucose] | – | ~29% | –
most of the remainder | – | O=P(O)(O)CP(=O)(O)O [methylenediphosphonic acid] | – | – | bone uptake: about 37%
